Experimental data as given in US11179409B2, “Cucurbitane tetracyclic triterpenoid compounds for application in treating pulmonary fibrosis” (CHENGDU BIOPURIFY LTD., priority 2015, dated 2021).

Columns and labels:
[1] = tested on: bleomycin-induced pulmonary fibrosis model mice; experiment: Bleomycin-induced mice pulmonary fibrosis model (tracheal bleomycin, stomach perfusion of drug); type: in vivo; details: for Body weights compared with model group / Lung coefficients (lung weight mg/body weight g) compared with model group: high-dose and low-dose mogroside IIIe groups, prednisone acetate 6.67 mg/kg/d, P<0.01; for Body weights compared with model group: after 14 and 28 days of administration, FIG. 1; for Lung coefficients (lung weight mg/body weight g) compared with model group: after administration for 14 days and 28 days, FIG. 2; for Lung tissue fibrosis degree (Masson staining) compared with model group: lung section on day 28, FIG. 3
From the text: The above mogroside IIIe is selected to be subjected to in-vivo pharmacodynamical research. Injection of a bleomycin-induced mice pulmonary fibrosis model is a commonly used method in the world, and such model is similar to a human pulmonary interstitial fibrosis model.
100 male ICR mice with a body weight of 25-30 g are provided by Comparative Medicine Center of Yangzhou University.
20 mice are used as a blank control group (control group in FIG. 1), and the other 80 mice are used for modeling. All the above mice are anesthetized by virtue of intraperitoneal injection of 4% chloral hydrate, with injection volume of 10 ml/kg. After anesthesia, each mouse is fixed and the neck of the mouse is disinfected; the skin of its neck is cut longitudinally with scissors to expose the trachea; the syringe is inserted into the trachea. The mice in the blank control group are injected with normal saline, and the remaining mice are injected with bleomycin (5 mg/kg); then the mouse plate is quickly erected and rotated, and the wound of each mouse is sutured after observing the breathing condition of the mouse, and 1-2 drops of penicillin injection are dropped at the suture. The postoperative mouse is placed back in a dry and clean mouse cage for rest, and then is normally fed after it revives approximately 1-2 h later.
Starting from the day 7 after modeling, the other 80 mice are randomly divided into a model group, a positive drug (prednisone acetate) group, a high-dose mogroside IIIe (50 mg/kg, mogroside IIIe-H) group, a low-dose mogroside IIIe group (10 mg/kg, mogroside IIIe-L), 20 mice in each group.
The mice in the blank control group and the model group are subjected to stomach perfusion with normal saline every day, the mice in the positive drug group are subjected to stomach perfusion with 6.67 mg/kg/d prednisone acetate, the mice in the high-dose/low-dose mogroside IIIe groups are subjected to stomach perfusion with 50 mg/kg/d and 10 mg/kg/d respectively for continuous 28 days, and are killed on the day 14 and the day 28. The each mouse is recorded in body weight, the lung tissue is taken out via dissection, cleaned with ice normal saline, sucked dry with absorbent paper and weighed, and then a lung coefficient is calculated, i.e., lung coefficient=lung weight (mg)/body weight (g). The left lung is put into 4% neutral formaldehyde for fixation, gradually dehydrated with alcohol, transparentized with xylene, immersed in wax, embedded in paraffin, then routinely sectioned and subjected to Masson staining, so that the lung tissue morphology, lung injury condition and pulmonary fibrosis degree are observed. Other lung lobes are individually stored for determination of HYP content.
All data are expressed as mean±SD(x±s). SPSS 11.5 statistical software is used for processing. Statistical analysis is performed using one-way ANOVA. P<0.05 represents this group has statistical significance.
For mice lung tissue injury caused by bleomycin, the number of leukocytes is increased, especially neutrophil infiltration causes alveolar inflammation, and inflammatory cells release inflammatory mediators NO, TNF-α and various cytokines, thereby on one hand, aggravating lung tissue injury and on the other hand promoting excessive increase of collagen through various growth factors. This experiment is performed in accordance with requirement specification of a kit. The number of leukocytes in the bronchoalveolar lavage fluid of the mice in each group is detected by a colorimetric method on the day 14 (as shown in Table 1). Neutrophils and lymphocytes are obviously accumulated in the bronchoalveolar lavage fluid of the mice on the day 14 after treatment with bleomycin (BLM).
Hydrooxyproline (HPY) is an amino acid obtained through protein hydrolysis of connective tissues, accounts for about 14% of the weight of collagen and plays a crucial role in stability of collagen. […]

[2] = tested on: bleomycin-induced pulmonary fibrosis model mice; experiment: as above; type: in vivo; details: for Lung tissue fibrosis degree (Masson staining) compared with model group: mice killed on day 28; for Lung coefficients compared with model group: day 28 after modeling, FIG. 7; for No. of neutrophils in bronchoalveolar lavage fluid / Total No. of cells in bronchoalveolar lavage fluid: n = 5
[3] = tested on: TGF-β1-induced human alveoli type II epithelial cells (A549); experiment: α-SMA expression (Western blot) in TGF-β1-induced A549 epithelial-mesenchymal transition; type: cell-based; details: TGF-β1 5 ng/mL, culture 48 hours, concentration of 50 μM, FIG. 5
From the text: Alveolar epithelial cells can obtain mesenchymal cell phenotypes through an epithelial cell-mesenchyme transformation (EMT) process to serve as an important source of myofibroblast and muscle fiber metrocyte. In this new mode, epithelial cell-mesenchyme transformation of pulmonary alveoli should be considered as one of key links of fibrosis. In mature cells, injury can induce transformation of epithelial cells into mesenchymal cell phenotype, thus facilitating the fibrosis of many organs. Fibroblasts and muscle fiber metrocytes differentiated from epithelial cells often change through form (for example, change from a cubical cell form to a strip form or a fusiform), obtaining of specific marker of the fibroblast or the muscle fiber metrocyte (for example, α-SMA) and loss of the epithelial character marker (for example, epithelial cell cadherin (E-cadherin and closely linked protein) are fussed together with these epithelial tissues. Through an in-vitro test, A549 cells are induced with TGF-β1 to generate epithelial cell-mesenchyme transformation (EMT), the α-SMA expression level of actin is analyzed adopting a Western blot method, and study meaning of mogroside IIIe on pathogensis of pulmonary fibrosis in a signal transduction pathway of an EMT process is discussed. […]

[4] = tested on: LPS-induced RAW264.7 cells; experiment: NO level in LPS-induced RAW264.7 cells; type: cell-based, mice; details: within a range of 10-100 μM
[5] = Example 2, mogroside IVe 50 mg/kg and 20 mg/kg, prednisone acetate 6.67 mg/kg/d, after administration for 14 days and 28 days, P<0.01, FIG. 6
[6] = Example 2, mogroside IVe 50 mg/kg and 20 mg/kg, prednisone acetate 6.67 mg/kg/d, P<0.01
[7] = Example 3, mogrol 50 mg/kg and 20 mg/kg, prednisone acetate 7.0 mg/kg/d, FIG. 9
[8] = Example 3, Table 3, 50 mg/kg high-dose group, day 14, vs model group
[9] = Example 1, Table 1, 50 mg/kg high-dose group, day 14, mean±SD, *P<0.05 vs model group
[10] = Example 1, on the 28 d after administration, P<0.05 or P<0.01
[11] = Example 2, Table 2, 50 mg/kg high-dose group, day 14, *P<0.05 vs model group

| Structure (SMILES) | Body weights compared with model group ([1]; Example 1) | Lung coefficients (lung weight mg/body weight g) compared with model group ([1]; Example 1) | Lung tissue fibrosis degree (Masson staining) compared with model group ([1]; Example 1) | Lung tissue fibrosis degree (Masson staining) compared with model group ([2]; Example 2, FIG. 8) | Body weights compared with model group [2, 5] | Lung coefficients compared with model group [2, 6] | Body weights compared with model group [2, 7] | further results |
| --- | --- | --- | --- | --- | --- | --- | --- | --- |
| CC(=O)OCC(=O)[C@@]1(O)CC[C@H]2[C@@H]3CCC4=CC(=O)C=C[C@]4(C)[C@H]3C(=O)C[C@@]21C [prednisone acetate, reference compound] | obviously increased | obviously decreased | the degree of the lesion is relieved than that in the model group | relieved | obviously increased | obviously reduced | obviously increased | – |
| C[C@H](CC[C@@H](O)C(C)(C)O)[C@H]1CC[C@@]2(C)[C@@H]3CC=C4[C@@H](CC[C@H](O)C4(C)C)[C@]3(C)[C@H](O)C[C@]12C [mogrol] | – | – | – | – | – | – | obviously increased | No. of neutrophils in bronchoalveolar lavage fluid [2, 8]: 4.16 ± 4.26 ×10^4; Total No. of cells in bronchoalveolar lavage fluid [2, 8]: 34.72 ± 17.83 ×10^4; Lung tissue fibrosis degree (Masson staining) compared with model group ([2]; Example 3, high-dose/low-dose mogrol (50, 20 mg/kg), FIG. 10): fibroblast hyperplasia degree is lower than that in the model group; Lung index compared with model group ([2]; Example 3, high-dose/low-dose mogrol groups): obviously reduce lung index |
| C[C@H](CC[C@@H](O[C@@H]1O[C@H](CO)[C@@H](O)[C@H](O)[C@H]1O[C@@H]1O[C@H](CO)[C@@H](O)[C@H](O)[C@H]1O)C(C)(C)O)[C@H]1CC[C@@]2(C)[C@@H]3CC=C4[C@@H](CC[C@H](O[C@@H]5O[C@H](CO)[C@@H](O)[C@H](O)[C@H]5O)C4(C)C)[C@]3(C)[C@H](O)C[C@]12C [mogroside IIIe] | obviously increased | obviously decreased | fibroblast hyperplasia degree is lower than that in the model group | – | – | – | – | Total number of cells in bronchoalveolar lavage fluid [1, 9]: 32.81 ± 18.53*; Content of TNF-α in the lung tissue compared with model group [1, 10]: significantly lower than those in the model group; α-SMA expression caused by TGF-β1 [3]: significantly inhibit; Level of NO [4]: dose dependence to inhibit the level of NO; Number of neutrophils in bronchoalveolar lavage fluid [2, 9]: 4.28 ± 4.52*; Content of HYP in lung tissue compared with model group ([2]; Example 1, 50 mg/kg, day 28, digestion method, P<0.05, FIG. 4): obviously reduce the content of HYP; Content of TGF-β1 compared with model group [2, 10]: significantly lower than those in the model group |
| C[C@H](CC[C@@H](O[C@@H]1O[C@H](CO)[C@@H](O)[C@H](O)[C@H]1O[C@@H]1O[C@H](CO)[C@@H](O)[C@H](O)[C@H]1O)C(C)(C)O)[C@H]1CC[C@@]2(C)[C@H]3CC=C4[C@@H](CC[C@H](O[C@@H]5O[C@H](CO[C@@H]6O[C@H](CO)[C@@H](O)[C@H](O)[C@H]6O)[C@@H](O)[C@H](O)[C@H]5O)C4(C)C)[C@]3(C)[C@H](O)C[C@]12C [mogroside IVe] | – | – | – | fibroblast hyperplasia degree is lower than that in the model group | obviously increased | obviously reduced | – | No. of neutrophils in bronchoalveolar lavage fluid [2, 11]: 3.97 ± 3.89* ×10^4; Total No. of cells in bronchoalveolar lavage fluid [2, 11]: 30.84 ± 16.49* ×10^4 |
